The values that follow come from US10800791B2, “Triazole ACC inhibitors and uses thereof” (Gilead Apollo, LLC, priority 2015, dated 2020).

pIC50: −log10 of the molar value. In brackets after ≈: the same amount, converted by molar mass. Read-outs that look alike come from different tables or passages of the source.

One test addresses human (hACC2) (Homo sapiens, UniProt O00763). The test is described as follows: In vitro ACC inhibition assay (ADP-Glo), hACC2. The test is classed as biochemical. The settings on record: 5 nM ACC2, 20 μM ATP, 20 μM acetyl-CoA. Here is the method:
The detailed procedure is as follows. […] 10 μL ADP glo reagent was added. […] 20 μL kinase detection reagent was added.

A further test deals with C. albicans. The test is described as follows: Antifungal Activity Assay (broth microtiter MIC), C. albicans. The class given is cell-based, Candida albicans. As to conditions: Candida albicans, ATCC90028, 48 h, ATCC 90028, 3 replicates, MIC recorded at 48 h, read-out: MIC, C. albicans ATCC 90028. An outline of the steps: (§1)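 Susceptibility was determined by CLSI M27-A3 broth microdilution in RPMI 1640 buffered with MOPS. Growth inhibition was scored visually after 48 h.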

A further test concerns C. krusei. Kind of test: Antifungal Activity Assay (broth microtiter MIC), C. krusei. As to conditions: Pichia kudriavzevii, ATCC6258, 48 h, ATCC 6258, 3 replicates, MIC recorded at 48 h, read-out: MIC, C. krusei ATCC 6258. The test is classed as cell-based, Candida krusei. The gist of the method:
as §1

The test system of a further test is C. parapsilosis. Kind of test: Antifungal Activity Assay (broth microtiter MIC), C. parapsilosis. The test is classed as cell-based, Candida parapsilosis. The settings on record: Lodderomyces parapsilosis, ATCC22019, 48 h, ATCC 22019, 3 replicates, MIC recorded at 48 h, read-out: MIC, C. parapsilosis ATCC 22019. The gist of the method: as §1
In a further test the test system is Botrtyis cinerea (Bc). The test is described as follows: Growth inhibition assay of fungal pathogens, Bc. The settings on record: 48 h, Botrtyis cinerea, read-out: Concentration at 90% Inhibition Bc. The test is classed as cell-based. An outline of the steps: (§2)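 Inhibition percentages reflect 48 h OD600 and visual scores relative to a 2% DMSO control. Test concentrations were 50, 10, 2 ppm or 2, 0.4, 0.08 ppm final, applied to spores in 17% V8 medium.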

The subject of the next test is Diplodia maydis (Dm). Kind of test: Growth inhibition assay of fungal pathogens, Dm. The class given is cell-based. The settings on record: Stenocarpella maydis, 48 h, Diplodia maydis, read-out: Concentration at 90% Inhibition Dm. An outline of the steps: as §2
Test [1] concerns Fusarium virguliforme (Fv). The test is described as follows: Growth inhibition assay of fungal pathogens, Fv. The test is classed as cell-based. As to conditions: 48 h, read-out: Concentration at 90% Inhibition Fv. An outline of the steps:
as §2

Test [2] deals with Phytophthora capsici (Pc). The test is described as follows: Growth inhibition assay of fungal pathogens, Pc. The class given is cell-based. The settings on record: 48 h, read-out: Concentration at 90% Inhibition Pc. The gist of the method: as §2
For another test, the system named is Rhizoctonia solani (Rs). Kind of test: Growth inhibition assay of fungal pathogens, Rs. The test is classed as cell-based. The settings on record: 48 h, mycelial plugs, read-out: Concentration at 90% Inhibition Rs.
The target of a further test is fungal (fACC2) (UniProt Q00955). The settings on record: read-out: fACC2 (in vitro ACC2 Inhibition Assay, IC50), ADP-Glo, 5 nM ACC2, 20 μM ATP, 20 μM acetyl-CoA. For orientation: ADP-Glo turns the ADP formed in a reaction into a luminescent signal.
[3] abbreviates: growth inhibition at 48 hours vs 2% DMSO control.
Setting [4] is: growth inhibition vs 2% DMSO control at 48 hours.

Sequence of human (hACC2) (O00763 whole entry): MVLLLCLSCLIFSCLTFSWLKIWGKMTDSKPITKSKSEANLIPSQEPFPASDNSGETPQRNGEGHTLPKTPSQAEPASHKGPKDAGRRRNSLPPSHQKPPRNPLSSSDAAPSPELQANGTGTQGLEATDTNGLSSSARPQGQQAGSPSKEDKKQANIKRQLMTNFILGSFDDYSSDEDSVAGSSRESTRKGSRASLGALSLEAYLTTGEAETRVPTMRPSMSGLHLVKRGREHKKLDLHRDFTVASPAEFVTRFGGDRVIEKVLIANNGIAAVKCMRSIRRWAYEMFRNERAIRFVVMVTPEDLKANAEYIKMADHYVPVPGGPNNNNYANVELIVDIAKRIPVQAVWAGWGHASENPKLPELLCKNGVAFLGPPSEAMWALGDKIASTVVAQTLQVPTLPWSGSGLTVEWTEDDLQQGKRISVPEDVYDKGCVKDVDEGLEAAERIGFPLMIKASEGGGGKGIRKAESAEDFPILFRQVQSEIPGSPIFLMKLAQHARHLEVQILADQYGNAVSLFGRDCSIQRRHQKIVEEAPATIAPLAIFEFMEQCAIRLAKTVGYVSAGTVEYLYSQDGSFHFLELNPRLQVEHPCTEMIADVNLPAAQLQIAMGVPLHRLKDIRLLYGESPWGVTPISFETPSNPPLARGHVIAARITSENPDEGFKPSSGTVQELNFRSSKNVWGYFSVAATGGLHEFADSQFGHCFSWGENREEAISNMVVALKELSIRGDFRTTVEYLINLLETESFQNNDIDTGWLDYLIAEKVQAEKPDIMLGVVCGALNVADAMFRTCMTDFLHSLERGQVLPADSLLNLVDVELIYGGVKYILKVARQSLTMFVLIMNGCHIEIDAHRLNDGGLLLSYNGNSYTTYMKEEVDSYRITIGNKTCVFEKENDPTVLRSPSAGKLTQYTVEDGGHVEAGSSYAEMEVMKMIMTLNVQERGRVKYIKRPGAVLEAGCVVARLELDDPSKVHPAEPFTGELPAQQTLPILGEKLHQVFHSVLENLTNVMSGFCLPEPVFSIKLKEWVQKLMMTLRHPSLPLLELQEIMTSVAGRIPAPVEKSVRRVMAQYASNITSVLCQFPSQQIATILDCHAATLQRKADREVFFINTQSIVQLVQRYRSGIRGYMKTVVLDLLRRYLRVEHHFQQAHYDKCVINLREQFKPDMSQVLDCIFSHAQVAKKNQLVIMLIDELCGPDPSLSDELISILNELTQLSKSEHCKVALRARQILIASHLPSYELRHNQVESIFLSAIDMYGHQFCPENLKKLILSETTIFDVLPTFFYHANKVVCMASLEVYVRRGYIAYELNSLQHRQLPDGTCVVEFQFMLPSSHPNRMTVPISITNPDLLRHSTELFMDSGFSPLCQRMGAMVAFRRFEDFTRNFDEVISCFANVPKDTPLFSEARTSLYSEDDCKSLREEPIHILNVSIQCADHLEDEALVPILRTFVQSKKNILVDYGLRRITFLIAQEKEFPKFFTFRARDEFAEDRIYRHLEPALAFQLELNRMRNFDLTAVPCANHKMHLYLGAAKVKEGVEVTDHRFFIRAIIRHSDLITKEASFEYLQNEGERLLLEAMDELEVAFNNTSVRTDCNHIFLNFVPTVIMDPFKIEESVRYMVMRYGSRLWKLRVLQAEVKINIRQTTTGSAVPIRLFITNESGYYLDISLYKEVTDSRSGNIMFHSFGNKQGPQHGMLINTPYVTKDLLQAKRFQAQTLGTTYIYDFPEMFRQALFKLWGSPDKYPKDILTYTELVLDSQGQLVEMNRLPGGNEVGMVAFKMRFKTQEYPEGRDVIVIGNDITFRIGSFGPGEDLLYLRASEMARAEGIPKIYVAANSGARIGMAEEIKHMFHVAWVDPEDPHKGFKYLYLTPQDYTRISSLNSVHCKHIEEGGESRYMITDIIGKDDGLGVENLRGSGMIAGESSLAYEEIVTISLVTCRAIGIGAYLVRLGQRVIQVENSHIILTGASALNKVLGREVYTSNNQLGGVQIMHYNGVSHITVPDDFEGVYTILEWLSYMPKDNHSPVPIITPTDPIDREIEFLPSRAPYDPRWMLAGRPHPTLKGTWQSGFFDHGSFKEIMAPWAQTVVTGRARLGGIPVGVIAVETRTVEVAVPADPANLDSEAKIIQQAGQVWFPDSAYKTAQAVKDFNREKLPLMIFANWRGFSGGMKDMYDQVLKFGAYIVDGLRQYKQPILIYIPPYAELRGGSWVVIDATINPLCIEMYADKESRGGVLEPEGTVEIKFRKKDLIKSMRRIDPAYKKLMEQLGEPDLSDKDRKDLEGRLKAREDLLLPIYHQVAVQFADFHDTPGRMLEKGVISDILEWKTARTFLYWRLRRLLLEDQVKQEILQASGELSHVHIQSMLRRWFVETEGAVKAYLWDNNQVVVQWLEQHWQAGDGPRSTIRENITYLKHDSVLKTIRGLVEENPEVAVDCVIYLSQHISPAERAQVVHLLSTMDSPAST
Sequence of fungal (fACC2) (Q00955 whole entry): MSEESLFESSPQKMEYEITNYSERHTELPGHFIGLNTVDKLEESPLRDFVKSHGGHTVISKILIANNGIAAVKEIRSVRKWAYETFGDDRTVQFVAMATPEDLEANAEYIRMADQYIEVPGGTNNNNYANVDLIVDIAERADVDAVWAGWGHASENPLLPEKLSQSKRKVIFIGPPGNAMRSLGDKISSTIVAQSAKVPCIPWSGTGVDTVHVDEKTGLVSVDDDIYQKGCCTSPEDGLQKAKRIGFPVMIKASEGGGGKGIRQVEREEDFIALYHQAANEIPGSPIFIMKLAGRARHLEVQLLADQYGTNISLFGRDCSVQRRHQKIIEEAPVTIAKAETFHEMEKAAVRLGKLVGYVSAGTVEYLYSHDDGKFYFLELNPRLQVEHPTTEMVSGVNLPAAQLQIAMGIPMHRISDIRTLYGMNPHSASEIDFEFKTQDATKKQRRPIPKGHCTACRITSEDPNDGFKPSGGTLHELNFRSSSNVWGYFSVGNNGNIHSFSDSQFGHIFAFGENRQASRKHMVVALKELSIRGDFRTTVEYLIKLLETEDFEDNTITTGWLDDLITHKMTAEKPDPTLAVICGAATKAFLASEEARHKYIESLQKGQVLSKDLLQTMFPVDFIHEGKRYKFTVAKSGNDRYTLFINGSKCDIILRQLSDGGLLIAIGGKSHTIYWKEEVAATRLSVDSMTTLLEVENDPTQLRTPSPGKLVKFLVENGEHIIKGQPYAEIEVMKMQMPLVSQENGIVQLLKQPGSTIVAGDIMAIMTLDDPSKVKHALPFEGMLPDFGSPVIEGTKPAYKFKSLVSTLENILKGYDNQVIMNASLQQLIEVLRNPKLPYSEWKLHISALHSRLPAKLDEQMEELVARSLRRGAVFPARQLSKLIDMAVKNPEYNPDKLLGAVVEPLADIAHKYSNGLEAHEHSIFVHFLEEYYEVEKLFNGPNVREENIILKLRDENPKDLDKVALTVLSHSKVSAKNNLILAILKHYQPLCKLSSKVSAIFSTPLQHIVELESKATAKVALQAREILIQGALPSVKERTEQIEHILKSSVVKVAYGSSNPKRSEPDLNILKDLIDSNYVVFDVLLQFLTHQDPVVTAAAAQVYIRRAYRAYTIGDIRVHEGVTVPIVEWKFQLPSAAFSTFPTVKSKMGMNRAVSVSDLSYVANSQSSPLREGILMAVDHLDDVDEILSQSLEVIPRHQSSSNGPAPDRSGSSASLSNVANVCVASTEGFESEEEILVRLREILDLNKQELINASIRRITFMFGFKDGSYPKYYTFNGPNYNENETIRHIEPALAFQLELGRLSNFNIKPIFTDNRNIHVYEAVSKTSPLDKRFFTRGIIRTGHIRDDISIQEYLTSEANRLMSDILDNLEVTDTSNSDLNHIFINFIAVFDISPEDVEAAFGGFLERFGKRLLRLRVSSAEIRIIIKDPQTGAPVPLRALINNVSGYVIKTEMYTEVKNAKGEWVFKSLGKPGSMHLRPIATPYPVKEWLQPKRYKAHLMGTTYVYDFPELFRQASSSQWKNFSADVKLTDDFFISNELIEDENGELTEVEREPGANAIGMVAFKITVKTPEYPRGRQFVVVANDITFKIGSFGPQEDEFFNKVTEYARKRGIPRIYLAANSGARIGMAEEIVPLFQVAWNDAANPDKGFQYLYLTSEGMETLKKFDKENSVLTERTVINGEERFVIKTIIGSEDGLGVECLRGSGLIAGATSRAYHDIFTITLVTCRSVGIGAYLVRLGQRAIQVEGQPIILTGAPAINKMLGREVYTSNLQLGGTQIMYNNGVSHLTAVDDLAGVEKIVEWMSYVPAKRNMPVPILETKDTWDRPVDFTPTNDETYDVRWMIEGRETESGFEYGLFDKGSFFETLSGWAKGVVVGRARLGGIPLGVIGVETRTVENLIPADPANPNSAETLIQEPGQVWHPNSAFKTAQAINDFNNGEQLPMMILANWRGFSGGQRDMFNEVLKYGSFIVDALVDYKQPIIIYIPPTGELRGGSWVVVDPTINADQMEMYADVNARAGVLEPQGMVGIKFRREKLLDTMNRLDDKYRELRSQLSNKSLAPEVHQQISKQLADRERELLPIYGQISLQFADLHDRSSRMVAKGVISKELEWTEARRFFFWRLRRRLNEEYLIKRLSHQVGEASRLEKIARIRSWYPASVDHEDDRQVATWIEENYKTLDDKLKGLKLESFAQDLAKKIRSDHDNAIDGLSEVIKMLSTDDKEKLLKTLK

The term pIC50 denotes the negative decadic logarithm of the IC50, by convention in mol/L. In general, MIC refers to the lowest concentration that inhibits growth of the organism. For `COc1ccc(F)cc1[C@H](Cn1c(=O)n(C(C)(C)C(=O)N2CC=CC2)c(=O)c2c(C)c(-n3nccn3)sc21)OC1CCOCC1` [Compound I-62, (R)-3-(1-(2,5-dihydro-1H-pyrrol-1-yl)-2-methyl-1-oxopro-pan-2-yl)-1-(2-(5-fluoro-2-methoxyphenyl)-2-((tetrahydro-2H-pyran-4-yl)oxy)ethyl)-5-methyl-6-(2H-1,2,3-triazol-2-yl)thieno[2,3-d]pyrimidine-2,4(1H,3H)-dione], the pIC50 was 8.30 to 9.00 on human (hACC2) (Table 2a); 8.30 to 9.00 at human (hACC2) (Table 2b, additional results); 8.30 to 9.00 on fungal (fACC2) (Table 2a); 8.30 to 9.00 on fungal (fACC2) (Table 2b, additional results). The MIC lay within 0.25 to 1 µg/mL (≈ 0.391 to 1.57 µM) in the test on C. albicans (Table 3a); 0.25 to 1 µg/mL (≈ 0.391 to 1.57 µM) in the test on C. albicans (Table 3b (additional results)); 0.25 to 1 µg/mL (≈ 0.391 to 1.57 µM) in the test with C. krusei (Table 3a); 0.25 to 1 µg/mL (≈ 0.391 to 1.57 µM) in the test on C. krusei (Table 3b (additional results)); 0.25 to 1 µg/mL (≈ 0.391 to 1.57 µM) in the test on C. parapsilosis (Table 3a); 1.01 to 2 µg/mL (≈ 1.58 to 3.13 µM) with C. parapsilosis (Table 3b (additional results)). For the same molecule, the IC90 in the test with Botrtyis cinerea (Bc) (setting [3]) came out at 2 µg/mL (≈ 3.13 µM); in the test with Botrtyis cinerea (Bc) (setting [4]), 2 µg/mL (≈ 3.13 µM); in the test on Diplodia maydis (Dm) (setting [3]), 0.4 µg/mL (≈ 0.626 µM); in the test with Diplodia maydis (Dm) (setting [4]), 0.4 µg/mL (≈ 0.626 µM); in [1] (setting [3]), 0.4 µg/mL (≈ 0.626 µM); in test [1] (setting [4]), 0.4 µg/mL (≈ 0.626 µM). Further, the IC90 in test [2] (setting [3]) was more than 50 µg/mL; in test [2] (setting [4]) it was more than 50 µg/mL; in the test on Rhizoctonia solani (Rs) (setting [3]) it was 0.08 µg/mL (≈ 0.125 µM); in the test on Rhizoctonia solani (Rs) (setting [4]) it was 0.08 µg/mL (≈ 0.125 µM).
As for `COc1ccc(F)cc1[C@H](Cn1c(=O)n(C(C)(C)C(=O)N2CC=CC2)c(=O)c2c(C)c(-n3nccn3)sc21)OC[C@@H](C)O` [Compound I-63, 3-(1-(2,5-dihydro-1H-pyrrol-1-yl)-2-methyl-1-oxopropan-2-yl)-1-((R)-2-(5-fluoro-2-methoxyphenyl)-2-((R)-2-hydroxypropoxy)ethyl)-5-methyl-6-(2H-1,2,3-triazol-2-yl)thieno[2,3-d]pyrimidine-2,4(1H,3H)-dione], the pIC50 against human (hACC2) (Table 2a) is 8.00 to 8.30; on human (hACC2) (Table 2b, additional results), 8.00 to 8.30; at fungal (fACC2) (Table 2a), 9.00 to 9.40; at fungal (fACC2) (Table 2b, additional results), 9.00 to 9.52. Further, the minimal inhibitory concentration (MIC) was 0.25 to 1 µg/mL (≈ 0.408 to 1.63 µM) with C. albicans (Table 3a); 1.01 to 2 µg/mL (≈ 1.65 to 3.26 µM) in the test on C. albicans (Table 3b (additional results)); 0.25 to 1 µg/mL (≈ 0.408 to 1.63 µM) with C. krusei (Table 3a); more than 4.01 µg/mL in the test on C. krusei (Table 3b (additional results)); 1.1 to 2 µg/mL (≈ 1.8 to 3.26 µM) with C. parapsilosis (Table 3a); 2.01 to 4 µg/mL (≈ 3.28 to 6.53 µM) with C. parapsilosis (Table 3b (additional results)). For the same molecule, the IC90 is 2 µg/mL (≈ 3.26 µM) in the test with Botrtyis cinerea (Bc) (setting [3]); 2 µg/mL (≈ 3.26 µM) with Botrtyis cinerea (Bc) (setting [4]); 2 µg/mL (≈ 3.26 µM) in the test on Diplodia maydis (Dm) (setting [3]); 2 µg/mL (≈ 3.26 µM) with Diplodia maydis (Dm) (setting [4]); 0.4 µg/mL (≈ 0.653 µM) in [1] (setting [3]); 0.4 µg/mL (≈ 0.653 µM) in test [1] (setting [4]). Moreover, the IC90 in [2] (setting [3]) is more than 50 µg/mL; in [2] (setting [4]), more than 50 µg/mL; with Rhizoctonia solani (Rs) (setting [3]), 0.4 µg/mL (≈ 0.653 µM); in the test on Rhizoctonia solani (Rs) (setting [4]), 0.4 µg/mL (≈ 0.653 µM).
On to `COCCO[C@@H](Cn1c(=O)n(C(C)C(=O)N2CCCC2)c(=O)c2c(C)c(-n3nccn3)sc21)c1cc(F)ccc1OC` (stereo partly drawn) [Compound I-64, 1-((R)-2-(5-fluoro-2-methoxyphenyl)-2-(2-methoxy-ethoxy)ethyl)-5-methyl-3-(1-oxo-1-(pyrrolidin-1-yl)propan-2-yl)-6-(2H-1,2,3-triazol-2-yl)thieno[2,3-d]pyrimidine-2,4(1H,3H)-dione], for which the pIC50 was 7.40 to 8.00 against human (hACC2) (Table 2a); 7.40 to 8.00 on human (hACC2) (Table 2b, additional results); 8.30 to 9.00 at fungal (fACC2) (Table 2a); 8.30 to 9.00 on fungal (fACC2) (Table 2b, additional results). For the same molecule, the minimum inhibitory concentration (MIC) in the test with C. albicans (Table 3a) was 2.1 to 4 µg/mL (≈ 3.5 to 6.66 µM); in the test on C. albicans (Table 3b (additional results)), 2.01 to 4 µg/mL (≈ 3.35 to 6.66 µM); in the test on C. krusei (Table 3a) it was 2.1 to 4 µg/mL (≈ 3.5 to 6.66 µM); in the test with C. krusei (Table 3b (additional results)) it was 2.01 to 4 µg/mL (≈ 3.35 to 6.66 µM); in the test on C. parapsilosis (Table 3a), 2.1 to 4 µg/mL (≈ 3.5 to 6.66 µM); with C. parapsilosis (Table 3b (additional results)), 1.01 to 2 µg/mL (≈ 1.68 to 3.33 µM). In addition, the IC90 was 2 µg/mL (≈ 3.33 µM) with Botrtyis cinerea (Bc) (setting [3]); 2 µg/mL (≈ 3.33 µM) with Botrtyis cinerea (Bc) (setting [4]); 10 µg/mL (≈ 16.6 µM) in the test with Diplodia maydis (Dm) (setting [3]); more than 50 µg/mL in the test with Diplodia maydis (Dm) (setting [4]); 0.4 µg/mL (≈ 0.666 µM) in test [1] (setting [3]); 0.4 µg/mL (≈ 0.666 µM) in [1] (setting [4]). Moreover, the IC90 in test [2] (setting [3]) was more than 50 µg/mL; in [2] (setting [4]), more than 50 µg/mL; in the test with Rhizoctonia solani (Rs) (setting [3]), 2 µg/mL (≈ 3.33 µM); in the test on Rhizoctonia solani (Rs) (setting [4]), 2 µg/mL (≈ 3.33 µM).
